# What was measured:
# [1] = system of European Patent 186,071; cited from earlier work
# [2] = Release of timolol from polymeric reservoir with and without ethylene-methyl acrylate membranes (Example IV); assay type: physicochemical
# Description: FIG. 11 is a graph of timolol release versus time (time versus accumulation) from an ADMEX® 760 reservoir without the use of a control membrane as set forth in Example IV. The graph indicated by reference numeral 111 is the graph of mg/cm^2 of timolol release versus hours. The basis of this graph is more specifically set forth in Example IV.
# FIG. 13 is a series of graphs (time versus flux) of timolol release rate through control membranes consisting of copolymers of ethylene and methyl acrylate; 5% and 7% with 1.25 mils thickness and 2.5 mils thickness as more specifically set forth in Example IV. The graph indicated by reference numeral 130 is the graph for a membrane having 7% methyl acrylate repeating monomeric units and a membrane of thickness 1.25 mils. The graph indicated by reference numeral 131 is the graph for use of a membrane containing 5% methyl acrylate repeating monomeric units with a thickness of 1.25 mils. The graph indicated by reference numeral 132 is the graph for the use of a membrane containing 7% methyl acrylate repeating monomeric units and having a thickness of 2.5 mils. The graph indicated by reference numeral 133 is the graph for a membrane containing 5% methyl acrylate repeating monomeric units and having a thickness of 2.5 mils.
# [3] = Flux through human skin from articles of FIG. 4 (Example V); conditions: reservoir 5% drug
# [4] = even at higher clonidine concentrations
# [5] = cited from earlier work
compound,measurement,setting,value
CC(C)(C)NC[C@H](O)COc1nsnc1N1CCOCC1 [timolol],irritation to the skin on transdermal application,[1],substantially no irritation to the skin
same,release of timolol from the reservoir through ethylene-methyl acrylate membranes,"[2]; 5% and 7% methyl acrylate, 1.25 and 2.5 mils thickness",Relatively controlled and constant release of the drug was obtained for a period of seven days
same,release of timolol from a polymeric reservoir into an aqueous sink,"[2]; in the absence of a membrane, ADMEX 760 reservoir",very high and followed typical first order kinetics
same,release behavior of timolol from a polymeric reservoir,[2]; use of ethylene methyl acrylate membranes,altered by the use of ethylene methyl acrylate membranes
CC(C)(C)NCC(O)c1cc(Cl)c(N)c(Cl)c1 (centres unmarked) [CLENBUTEROL],Flux Thru Human Skin,[3]; with membrane 1.25 mil EMA (11% MA),15.1 ug/cm^2 /day
same,Flux Thru Human Skin,"[3]; without membrane, 35% PVC resin, 60% ADMEX 760",34.5 ug/cm^2 /day
Clc1cccc(Cl)c1NC1=NCCN1 [clonidine],effect of copolymeric EMA membranes on drug diffusion rates in the transdermal patch,[4],lower the drug diffusion rates in the transdermal patch even at higher clonidine concentrations
same,solubility in mineral oil,[5],approximately 0.5 mg/ml

# From patent US5310559A, “Device for controlled release and delivery to mammalian tissue of pharmacologically active agents incorporating a rate controlling member which comprises an alkylene-alkyl acrylate copolymer” (Hercon Laboratories Corporation, priority 1992, dated 1994)
